Laboratory results from patent US20250230193A1, “CYCLIC COMPOUND HAVING SELECTIVE KRAS INHIBITORY EFFECT ON HRAS AND NRAS” (CHUGAI SEIYAKU KABUSHIKI KAISHA, priority 2022, published 2025).

Key:
[1] = molecular target: GDP-bound HRAS wild-type protein (Homo sapiens, UniProt P01112); assay: Binding to HRAS by surface plasmon resonance (SPR), Single Cycle Kinetics; settings: SPR; KD ratio class
[2] = system: human lung cancer strain NCI-H441; assay: cells; settings: NCI-H441, 96 h, read-out: NCI-H441 IC50 (nM)
[3] = molecular target: GDP-bound NRAS wild-type protein (Homo sapiens, UniProt P01111); assay: Binding to NRAS by surface plasmon resonance (SPR), Single Cycle Kinetics; settings: SPR; KD ratio class
GDP-bound NRAS wild-type protein, sequence (P01111 whole entry): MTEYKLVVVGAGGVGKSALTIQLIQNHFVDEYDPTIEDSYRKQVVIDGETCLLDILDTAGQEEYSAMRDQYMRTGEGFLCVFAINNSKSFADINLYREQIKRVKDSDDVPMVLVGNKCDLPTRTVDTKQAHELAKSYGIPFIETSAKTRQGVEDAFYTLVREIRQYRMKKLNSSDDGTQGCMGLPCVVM

GDP-bound HRAS wild-type protein, sequence (P01112 whole entry): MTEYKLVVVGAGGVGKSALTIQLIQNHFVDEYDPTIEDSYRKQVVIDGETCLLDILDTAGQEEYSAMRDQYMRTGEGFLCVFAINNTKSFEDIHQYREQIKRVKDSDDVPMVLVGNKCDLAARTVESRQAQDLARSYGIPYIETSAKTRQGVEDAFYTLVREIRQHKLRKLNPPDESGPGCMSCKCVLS

| SMILES | HRAS/KRAS (ratio of KD value for GDP-bound HRAS wild-type protein to KD value for KRAS) [1] | IC50 [2] [nM] | NRAS/KRAS (ratio of KD value for GDP-bound NRAS wild-type protein to KD value for KRAS) [3] |
| --- | --- | --- | --- |
| CCO[C@@H]1C[C@H]2C(=O)NC3(CCC3)C(=O)N(C)[C@@H](C(CC)CC)C(=O)N(C)[C@H](C(=O)N(C)C)CC(=O)N(C)[C@@H](CC3CCCC3)C(=O)N[C@@H]([C@@H](C)CC)C(=O)N(C)CC(=O)N(C)[C@H]3C/C=C\CCN(C3=O)[C@@H](CC3CCCCC3)C(=O)N(C)CC(=O)N[C@@H](CCc3cc(F)c(C(F)(F)F)c(F)c3)C(=O)N2C1 [PP1430] | A (a compound having 10 or more and less than 20 is denoted as A) | 70.4 | A (a compound having 10 or more and less than 20 is denoted as A) |
| CCO[C@@H]1C[C@H]2C(=O)NC3(CCC3)C(=O)N(C)[C@@H](C(CC)CC)C(=O)N(C)[C@H](C(=O)N(C)C)CC(=O)N(C)[C@@H](CC3CCCC3)C(=O)N[C@@H]([C@@H](C)CC)C(=O)N(C)CC(=O)N(C)[C@H]3C/C=C\CCN(C3=O)[C@@H](CC3CCC(F)(F)CC3)C(=O)N(C)CC(=O)N[C@@H](CCc3cc(F)c(C(F)(F)F)c(F)c3)C(=O)N2C1 [PP1431] | A (a compound having 10 or more and less than 20 is denoted as A) | 41.2 | AA (a compound having 20 or more is denoted as AA) |
| CCO[C@@H]1C[C@H]2C(=O)NC3(CCC3)C(=O)N(C)[C@@H](C(CC)CC)C(=O)N(C)[C@H](C(=O)N(C)C)CC(=O)N(C)[C@@H](CC(C)C)C(=O)N[C@@H]([C@@H](C)CC)C(=O)N(C)CC(=O)N(C)[C@H]3C/C=C\CCN(C3=O)[C@@H](CC3CCCCC3)C(=O)N(C)CC(=O)N[C@@H](CCc3cc(F)c(C(F)(F)F)c(F)c3)C(=O)N2C1 [PP1432] | A (a compound having 10 or more and less than 20 is denoted as A) | 51.3 | AA (a compound having 20 or more is denoted as AA) |
| CCO[C@@H]1C[C@H]2C(=O)NC3(CCC3)C(=O)N(C)[C@@H](C(CC)CC)C(=O)N(C)[C@H](C(=O)N(C)C)CC(=O)N(C)[C@@H](CC(C)C)C(=O)N[C@@H]([C@@H](C)CC)C(=O)N(C)CC(=O)N(C)[C@H]3C/C=C\CCN(C3=O)[C@@H](CC3CCC(F)(F)CC3)C(=O)N(C)CC(=O)N[C@@H](CCc3cc(F)c(C(F)(F)F)c(F)c3)C(=O)N2C1 [PP1433] | A (a compound having 10 or more and less than 20 is denoted as A) | 44.4 | AA (a compound having 20 or more is denoted as AA) |
| CCO[C@@H]1C[C@H]2C(=O)NC3(CCC3)C(=O)N(C)[C@@H](C(CC)CC)C(=O)N(C)[C@H](C(=O)N3CCCC3)CC(=O)N(C)[C@@H](C)C(=O)N[C@@H]([C@@H](C)CC)C(=O)N(C)CC(=O)N(C)[C@H]3C/C=C\CCN(C3=O)[C@@H](CC3CCCCC3)C(=O)N(C)CC(=O)N[C@@H](CCc3cc(F)c(C(F)(F)F)c(F)c3)C(=O)N2C1 [PP1434] | A (a compound having 10 or more and less than 20 is denoted as A) | 112 | A (a compound having 10 or more and less than 20 is denoted as A) |
| CCO[C@@H]1C[C@H]2C(=O)NC3(CCCC3)C(=O)N(C)[C@@H](C(CC)CC)C(=O)N(C)[C@H](C(=O)N3CCCC3)CC(=O)N(C)[C@@H](C)C(=O)N[C@@H]([C@@H](C)CC)C(=O)N(C)CC(=O)N(C)[C@H]3C/C=C\CCN(C3=O)[C@@H](CC3CCCCC3)C(=O)N(C)CC(=O)N[C@@H](CCc3cc(F)c(C(F)(F)F)c(F)c3)C(=O)N2C1 [PP1435] | A (a compound having 10 or more and less than 20 is denoted as A) | 178 | A (a compound having 10 or more and less than 20 is denoted as A) |
| CCO[C@@H]1C[C@H]2C(=O)NC3(CCC3)C(=O)N(C)[C@@H](C(CC)CC)C(=O)N(C)[C@H](C(=O)N3CCCC3)CC(=O)N(C)[C@@H](C)C(=O)N[C@@H]([C@@H](C)CC)C(=O)N(C)CC(=O)N(C)[C@H]3C/C=C\CCN(C3=O)[C@@H](CC3CCC(F)(F)CC3)C(=O)N(C)CC(=O)N[C@@H](CCc3cc(F)c(C(F)(F)F)c(F)c3)C(=O)N2C1 [PP1436] | A (a compound having 10 or more and less than 20 is denoted as A) | 47.4 | AA (a compound having 20 or more is denoted as AA) |
| CCO[C@@H]1C[C@H]2C(=O)NC3(CCCC3)C(=O)N(C)[C@@H](C(CC)CC)C(=O)N(C)[C@H](C(=O)N3CCCC3)CC(=O)N(C)[C@@H](C)C(=O)N[C@@H]([C@@H](C)CC)C(=O)N(C)CC(=O)N(C)[C@H]3C/C=C\CCN(C3=O)[C@@H](CC3CCC(F)(F)CC3)C(=O)N(C)CC(=O)N[C@@H](CCc3cc(F)c(C(F)(F)F)c(F)c3)C(=O)N2C1 [PP1437] | A (a compound having 10 or more and less than 20 is denoted as A) | 220 | A (a compound having 10 or more and less than 20 is denoted as A) |
| CCO[C@@H]1C[C@H]2C(=O)NC3(CCC3)C(=O)N(C)[C@@H](C(CC)CC)C(=O)N(C)[C@H](C(=O)N3CCCC3)CC(=O)N(C)[C@@H](COC)C(=O)N[C@@H]([C@@H](C)CC)C(=O)N(C)CC(=O)N(C)[C@H]3C/C=C\CCN(C3=O)[C@@H](CC3CCCCC3)C(=O)N(C)CC(=O)N[C@@H](CCc3cc(F)c(C(F)(F)F)c(F)c3)C(=O)N2C1 [PP1438] | A (a compound having 10 or more and less than 20 is denoted as A) | 89.4 | AA (a compound having 20 or more is denoted as AA) |
| CCO[C@@H]1C[C@H]2C(=O)NC3(CCCC3)C(=O)N(C)[C@@H](C(CC)CC)C(=O)N(C)[C@H](C(=O)N3CCCC3)CC(=O)N(C)[C@@H](COC)C(=O)N[C@@H]([C@@H](C)CC)C(=O)N(C)CC(=O)N(C)[C@H]3C/C=C\CCN(C3=O)[C@@H](CC3CCCCC3)C(=O)N(C)CC(=O)N[C@@H](CCc3cc(F)c(C(F)(F)F)c(F)c3)C(=O)N2C1 [PP1439] | A (a compound having 10 or more and less than 20 is denoted as A) | 87.3 | AA (a compound having 20 or more is denoted as AA) |
| CCO[C@@H]1C[C@H]2C(=O)NC3(CCC3)C(=O)N(C)[C@@H](C(CC)CC)C(=O)N(C)[C@H](C(=O)N3CCCC3)CC(=O)N(C)[C@@H](COC)C(=O)N[C@@H]([C@@H](C)CC)C(=O)N(C)CC(=O)N(C)[C@H]3C/C=C\CCN(C3=O)[C@@H](CC3CCC(F)(F)CC3)C(=O)N(C)CC(=O)N[C@@H](CCc3cc(F)c(C(F)(F)F)c(F)c3)C(=O)N2C1 [PP1440] | A (a compound having 10 or more and less than 20 is denoted as A) | 69.7 | AA (a compound having 20 or more is denoted as AA) |
| CCO[C@@H]1C[C@H]2C(=O)NC3(CCCC3)C(=O)N(C)[C@@H](C(CC)CC)C(=O)N(C)[C@H](C(=O)N3CCCC3)CC(=O)N(C)[C@@H](COC)C(=O)N[C@@H]([C@@H](C)CC)C(=O)N(C)CC(=O)N(C)[C@H]3C/C=C\CCN(C3=O)[C@@H](CC3CCC(F)(F)CC3)C(=O)N(C)CC(=O)N[C@@H](CCc3cc(F)c(C(F)(F)F)c(F)c3)C(=O)N2C1 [PP1441] | A (a compound having 10 or more and less than 20 is denoted as A) | 87.6 | A (a compound having 10 or more and less than 20 is denoted as A) |
| CCO[C@@H]1C[C@H]2C(=O)NC3(CCC3)C(=O)N(C)[C@@H](C3CCCC3)C(=O)N(C)[C@H](C(=O)N3CCC3)CC(=O)N(C)[C@@H](CC)C(=O)N[C@@H]([C@@H](C)CC)C(=O)N(C)CC(=O)N(C)[C@H]3C/C=C\CCN(C3=O)[C@@H](CC3CCC(F)(F)CC3)C(=O)N(C)CC(=O)N[C@@H](CCc3cc(F)c(C(F)(F)F)c(F)c3)C(=O)N2C1 [PP1444] | A (a compound having 10 or more and less than 20 is denoted as A) | 103 | A (a compound having 10 or more and less than 20 is denoted as A) |
| CCO[C@@H]1C[C@H]2C(=O)NC3(CCC3)C(=O)N(C)[C@@H](C3CCCC3)C(=O)N(C)[C@H](C(=O)N3CCC3)CC(=O)N(C)[C@@H](CC)C(=O)N[C@@H]([C@@H](C)CC)C(=O)N(C)CC(=O)N(C)[C@H]3C/C=C\CCN(C3=O)[C@@H](CC3CCCCC3)C(=O)N(C)CC(=O)N[C@@H](CCc3cc(F)c(C(F)(F)F)c(F)c3)C(=O)N2C1 [PP1445] | A (a compound having 10 or more and less than 20 is denoted as A) | 92.8 | A (a compound having 10 or more and less than 20 is denoted as A) |
| CCO[C@@H]1C[C@H]2C(=O)NC3(CCC3)C(=O)N(C)[C@@H](C3CCCC3)C(=O)N(C)[C@H](C(=O)N(C)C)CC(=O)N(C)[C@@H](CC3CC3)C(=O)N[C@@H]([C@@H](C)CC)C(=O)N(C)CC(=O)N(C)[C@H]3C/C=C\CCN(C3=O)[C@@H](CC3CCCCC3)C(=O)N(C)CC(=O)N[C@@H](CCc3cc(F)c(C(F)(F)F)c(F)c3)C(=O)N2C1 [PP1446] | A (a compound having 10 or more and less than 20 is denoted as A) | 32 | A (a compound having 10 or more and less than 20 is denoted as A) |
